Assay results from US20220389422A1, “IONIZABLE CATIONIC LIPIDS FOR RNA DELIVERY” (Arcturus Therapeutics, Inc., priority 2021, published 2022).

How the values were obtained:
[1] = Measured pKa; format: physicochemical; conditions: read-out: (pKa) measured pKa in parenthesis
[2] = test system: hEPO mRNA; experiment: hEPO mRNA expression evaluation (hEPO-LNPs); format: in vivo, Balb/c mice; conditions: intravenous (tail vein), serum hEPO after 6 hr, ELISA; for EPO expression (ng/mL)_0.03 mpk: 0.03 mg/kg; for EPO expression (ng/mL)_0.1 mpk: 0.1 mg/kg
Protocol: Protocol for hEPO mRNA Expression Evaluation Lipid formulations comprising a hEPO mRNA below were evaluated for their ability to express hEPO in vivo according to the protocol of this example. All animal experiments were conducted using institutionally-approved protocols (IACUC). In this protocol, female Balb/c mice at least 6-8 weeks of age were purchased from Charles River Laboratory. The mice were intravenously injected with hEPO-LNPs via the tail vein with one of two dose levels of hEPO (0.1 and 0.03 mg/kg). After 6 hr, blood was collected with serum separation tubes, and the serum was isolated by centrifugation. Serum hEPO levels were then measured using an ELISA assay (Human Erythropoietin Quantikine IVD ELISA Kit, R&D Systems, Minneapolis, Md.).

[3] = test system: factor VII; experiment: Factor VII knock down evaluation (LNP with FVII siRNA); format: in vivo, Balb/C mice; conditions: intravenous, plasma FVII after 48 h, relative to saline-treated controls; for FVII KD % _ 0.01 mpk: 0.01 mg/kg; for FVII KD % _ 0.03 mpk: 0.03 mg/kg
Protocol: Lipid formulations comprising a FVII siRNA further described below were evaluated for their knockdown activity using the protocol of this example. In the FVII evaluation, seven to eight week-old, female Balb/C mice were purchased from Charles River Laboratories (Hollister, Calif.). The mice were held in a pathogen-free environment and all procedures involving the mice were performed in accordance with guidelines established by the Institutional Animal Care and Use Committee (IACUC). Lipid nanoparticles containing factor VII siRNA were administered intravenously at a dosing volume of 10 mL/kg and two dose levels (0.03 and 0.01 mg/kg). After 48 h, the mice were anesthetized with isoflurane and blood was collected retro-orbitally into Microtainer® tubes coated with 0.109 M sodium citrate buffer (BD Biosciences, San Diego, Calif.) and processed to plasma. Plasma specimens were tested for factor VII levels immediately or stored at −80° C. for later analysis. Measurement of FVII protein in plasma was determined using the colorimetric Biophen VII assay kit (Aniara Diagnostica, USA). Absorbance was measured at 405 nm and a calibration curve was generated using the serially diluted control plasma to determine levels of factor VII in plasma from treated animals, relative to the saline-treated control animals.

[4] = In vivo biodegradability assay (lipid in mouse liver); set-up: species or system mice; conditions: for concentration at 48 h: 0.03 mg/Kg dose, read-out: In vivo degradability ng/g of tissue at 48 h_0.03 mpk; for In vivo degradability ng/tissue at 48 h_0.1 mpk: 48 h, 0.1 mg/Kg dose
Protocol: In vivo biodegradability assay was performed to assess the biodegradability of lipids in the LNP. Briefly, mice were injected with either 0.1 or 0.03 mg/Kg dose and after 24 or 48 hours mice livers were collected. To measure the concentration of lipids in the mouse liver, liver samples were homogenized in appropriate buffer in 1-10 dilution and mixed with the same amount of stabilized plasma. The samples were then mixed with organic solvents spiked with internal standard to precipitate proteins. After centrifugation, supernatant was diluted further with organic solvent before sample analysis by LC-MS. In LC-MS analysis, positive electrospray ionization was used, and multiple reaction monitoring (MRM) parameters were set up to specifically target the lipid analyte and internal standard. Calibration standards were prepared in stabilized plasma and mixed with same amount of homogenization buffer before protein precipitation. Quality control samples with known amounts of lipid was prepared in blank liver homogenate to monitor the precision and accuracy of the assay.

[5] = Mouse plasma stability; format: in vitro ADME, CD-1 mouse; conditions: 37° C., starting concentration 1 μM, 120 min, LC-MS
Protocol: Lipid stock solution was prepared by dissolution of the lipid in isopropanol at the concentration of 5 mg/mL. A requisite volume of the lipid-isopropanol solution was then diluted to 100 μM concentration at a total volume of 1.0 mL with in 50:50 (v/v) ethanol/water. Ten microliters of this 100 μM solution was spiked into 1.0 mL of mouse plasma (BioIVT, Cat. No.: MSE00PLNHUNN, CD-1 mouse, anticoagulant: sodium heparin, not filtered) that was pre-warmed to 37° C. and was stirred at 50 rpm with a magnetic stir bar. The starting concentration of lipids in plasma was thus 1 μM. At time points 0, 15, 30, 45, 60 and 120 min, 0.1 mL of the plasma was withdrawn from the reaction mixture and the protein was precipitated by adding 0.9 mL of ice-cold 4:1 (v/v) acetonitrile/methanol with 1 μg/mL of a selected internal standard lipid added. After filtration through a 0.45 micron 96-well filtering plate, the filtrates were analyzed by LC-MS (Thermo Fisher's Vanquish UHPLC-LTQ XL linear ion trap Mass Spectrometer); Waters XBridge BEH Shield RP18 2.5 µm (2.1×100 mm) column with its matching guard column. Mobile phase A was 0.1% formic acid in water, and mobile phase B was 0.1% formic acid in 1:1 (v/v) acetonitrile/methanol. Flow rate was […]. Elution gradient was: Time 0-1 min: 10% B; 1-6 min: 10%-95% B; 6-8.5 min: 95% B; 8.5-9 min: 95%-10% B; 9-10 min: 10% B. Mass spectrometry was in positive scanning mode from 600-1100 m/z. The peak of the molecular ion of the lipids was integrated in the extracted ion chromatography
(XIC) using Xcalibur software (Thermo Fisher). The relative peak area compared to T=0, after normalization by the peak area of the internal standard, was used as the percentage of the lipid remaining at each time point. T1/2 values were calculated using the first-order decay model.

| SMILES | pKa [1] | EPO expression (ng/mL)_0.03 mpk [2] | EPO expression (ng/mL)_0.1 mpk [2] | FVII KD % _ 0.01 mpk [3] | FVII KD % _ 0.03 mpk [3] | concentration at 48 h [4] | In vivo degradability ng/tissue at 48 h_0.1 mpk [4] | Percent of lipid remaining in mouse plasma after 2 h [5] |
| --- | --- | --- | --- | --- | --- | --- | --- | --- |
| CCCCCCCC(CCCCCCC)OC(=O)CCCC(CCCC(=O)OC(CCCCC)CCCCC)OC(=O)CCCN(C)C (centres unmarked) [ATX-210] | 6.53 | 329 ng/mL | 662 ng/mL | 87% | 97.65% | – | – | – |
| CCCCCCCC(CCCCCCC)OC(=O)CCCC(CCCC(=O)OC(CCCCCCC)CCCCCCC)OC(=O)CCCN(C)C [ATX-193, 1,9-bis(pentadecan-8-yl)5-[[4-(dimethylamino)butanoyl]oxy] nonanedioate] | 6.35 | 264 ng/mL | 498 ng/mL | 95.6% | 100% | – | – | – |
| CCCCCC(CC)C(=O)OCCCCCCCCCC(CCCCCCCCCOC(=O)C(CC)CCCCC)OC(=O)CCCN(C)C (centres unmarked) [Compound-10111, reference compound] | – | 105 ng/mL | 213 ng/mL | 89% | 95% | 566 ng/g | 2613 ng/tissue | 91% |
| CCCCCCCC(CCCCCCC)OC(=O)CCC(CCC(=O)OC(CCCCCCC)CCCCCCC)COC(=O)CCCN(C)C [ATX-201] | 6.74 | 523 ng/mL | 680 ng/mL | 87.4% | 97.5% | – | – | – |
| CCCCCCC(CCCCCC)OC(=O)CCCCCC(CCCCCC(=O)OC(CCCCCC)CCCCCC)OC(=O)CCCN(C)C [ATX-209] | – | 65 ng/mL | 290 ng/mL | 65.7% | 90.6% | 0 ng/g | 647 ng/tissue | 80% |
| CCCCCCCC(CCCCCCC)OC(=O)CCCC(CCCC(=O)OC(CCCCCCC)CCCCCCC)SC(=O)CCCN(C)C [ATX-202] | 6.17 | 447 ng/mL | 531 ng/mL | 61.42% | 83.22% | – | – | – |
| CCCCCCCC(CCCCCCC)OC(=O)CCCC(CCCC(=O)OC(CCCCCCC)CCCCCCC)COC(=O)CCCN(C)C [ATX-200, 1,9-bis(pentadecan-8-yl) 5-([[4-(dimethylamino)butanoyl]oxy]methyl) nonanedioate] | 6.78 | 494 ng/mL | 828 ng/mL | 87.1% | 97.5% | – | – | – |
| CCCCCCC(CCCCCC)COC(=O)CCCCCC(CCCCCC(=O)OCC(CCCCCC)CCCCCC)OC(=O)CCCN(C)C [ATX-231] | – | 1706 ng/mL | 5446 ng/mL | 72% | 86% | 0 ng/g | 0 ng/tissue | 89% |
| CCCCCCCC(CCCCCCC)COC(=O)CCCC(CCCC(=O)OC(CCCCCCC)CCCCCCC)OC(=O)CCCN(C)C (centres unmarked) [ATX-232] | – | 2115 ng/mL | 510 ng/mL | 74% | 90% | – | – | – |
